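Values below derive from 48-hour exposures of cells grown in 96-well plates, with endpoints linearly interpolated between the two concentrations bracketing the appropriate inhibition level. TGI is the concentration that stops growth completely.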
Experiments:
Experiment in all cases: NCI tumour cell line growth inhibition, 48 h
[1] = system: 786-0 renal
[2] = system: A498 renal
[3] = system: A549 NSCLC
[4] = system: ACHN renal
[5] = system: BT-549 breast
[6] = system: CAKI-1 renal
[7] = system: COLO 205 colon
[8] = system: DU-145 prostate
[9] = system: EKVX NSCLC
[10] = system: HCC-2998 colon
[11] = system: HCT-116 colon
[12] = system: HCT-15 colon
[13] = system: HOP-62 NSCLC
[14] = system: HOP-92 NSCLC
[15] = system: HS 578T breast
[16] = system: HT29 colon
[17] = system: IGROV1 ovarian
[18] = system: KM12 colon
[19] = system: LOX IMVI melanoma
[20] = system: M14 melanoma
[21] = system: MCF7 breast
[22] = system: MDA-MB-231 breast
[23] = system: MDA-MB-435
[24] = system: MDA-N
[25] = system: MOLT-4 leukemia
[26] = system: NCI-H226 lung
[27] = system: NCI-H23 lung
[28] = system: NCI-H460 lung
[29] = system: NCI-H522 lung
[30] = system: NCI/ADR-RES ovarian
[31] = system: OVCAR-3 ovarian
[32] = system: OVCAR-4 ovarian
[33] = system: OVCAR-5 ovarian
[34] = system: OVCAR-8 ovarian
[35] = system: PC-3 prostate
[36] = system: RPMI-8226 leukemia
[37] = system: SF-268 CNS
[38] = system: SF-295 CNS
[39] = system: SF-539 CNS
[40] = system: SK-MEL-2 melanoma
[41] = system: SK-MEL-28 melanoma
[42] = system: SK-MEL-5 melanoma
[43] = system: SK-OV-3 ovarian
[44] = system: SN12C renal
[45] = system: SNB-19 CNS
[46] = system: SNB-75 CNS
[47] = system: SR leukemia
[48] = system: SW-620 colon
[49] = system: T-47D breast
[50] = system: TK-10 renal
[51] = system: U251 CNS
[52] = system: UACC-257 melanoma
[53] = system: UACC-62 melanoma
[54] = system: UO-31 renal
[55] = system: CCRF-CEM leukemia
[56] = system: HL-60(TB) leukemia
[57] = system: K-562 leukemia
[58] = system: RXF 393 renal
[59] = system: MALME-3M melanoma

## Cc1c2c(n(CC(c3ccccc3)c3ccccc3)c1C)NN=C(C#N)S2(=O)=O
[1]
  TGI: > 100 µM
[2]
  TGI: > 100 µM
[3]
  TGI: > 100 µM
[4]
  TGI: > 100 µM
[5]
  TGI: > 100 µM
[6]
  TGI: > 100 µM
[7]
  TGI: > 100 µM
[8]
  TGI: > 100 µM
[9]
  TGI: > 100 µM
[10]
  TGI: > 100 µM
[11]
  TGI: > 100 µM
[12]
  TGI: > 100 µM
[13]
  TGI: > 100 µM
[14]
  TGI: > 100 µM
[15]
  TGI: > 100 µM
[16]
  TGI: > 100 µM
[17]
  TGI: > 100 µM
[18]
  TGI: > 100 µM
[19]
  TGI: > 100 µM
[20]
  TGI: > 100 µM
[21]
  TGI: > 100 µM
[22]
  TGI: > 100 µM
[23]
  TGI: > 100 µM
[24]
  TGI: > 100 µM
[25]
  TGI: > 100 µM
[26]
  TGI: > 100 µM
[27]
  TGI: > 100 µM
[28]
  TGI: > 100 µM
[29]
  TGI: > 100 µM
[30]
  TGI: > 100 µM
[31]
  TGI: > 100 µM
[32]
  TGI: > 100 µM
[33]
  TGI: > 100 µM
[34]
  TGI: > 100 µM
[35]
  TGI: > 100 µM
[36]
  TGI: > 100 µM
[37]
  TGI: > 100 µM
[38]
  TGI: > 100 µM
[39]
  TGI: > 100 µM
[40]
  TGI: > 100 µM
[41]
  TGI: > 100 µM
[42]
  TGI: > 100 µM
[43]
  TGI: > 100 µM
[44]
  TGI: > 100 µM
[45]
  TGI: > 100 µM
[46]
  TGI: > 100 µM
[47]
  TGI: > 100 µM
[48]
  TGI: > 100 µM
[49]
  TGI: > 100 µM
[50]
  TGI: > 100 µM
[51]
  TGI: > 100 µM
[52]
  TGI: > 100 µM
[53]
  TGI: > 100 µM
[54]
  TGI: > 100 µM

## OC1(c2ccc(Cl)cc2)c2ccccc2-c2nc3ccccc3n21 (stereo not given)
[1]
  TGI: > 100 µM
[2]
  TGI: > 100 µM
[3]
  TGI: > 100 µM
[4]
  TGI: > 100 µM
[5]
  TGI: > 100 µM
[6]
  TGI: > 100 µM
[55]
  TGI: > 100 µM
[7]
  TGI: > 100 µM
[8]
  TGI: > 100 µM
[9]
  TGI: > 100 µM
[10]
  TGI: > 100 µM
[11]
  TGI: > 100 µM
[12]
  TGI: > 100 µM
[56]
  TGI: > 100 µM
[13]
  TGI: > 100 µM
[14]
  TGI: > 100 µM
[15]
  TGI: > 100 µM
[16]
  TGI: > 100 µM
[17]
  TGI: > 100 µM
[57]
  TGI: > 100 µM
[18]
  TGI: > 100 µM
[19]
  TGI: > 100 µM
[20]
  TGI: > 100 µM
[21]
  TGI: > 100 µM
[22]
  TGI: > 100 µM
[23]
  TGI: > 100 µM
[24]
  TGI: > 100 µM
[25]
  TGI: > 100 µM
[26]
  TGI: > 100 µM
[27]
  TGI: > 100 µM
[28]
  TGI: > 100 µM
[29]
  TGI: > 100 µM
[30]
  TGI: > 100 µM
[31]
  TGI: > 100 µM
[32]
  TGI: > 100 µM
[33]
  TGI: > 100 µM
[34]
  TGI: > 100 µM
[35]
  TGI: > 100 µM
[36]
  TGI: > 100 µM
[58]
  TGI: 55 µM
[37]
  TGI: > 100 µM
[38]
  TGI: > 100 µM
[39]
  TGI: > 100 µM
[40]
  TGI: > 100 µM
[41]
  TGI: > 100 µM
[42]
  TGI: > 100 µM
[43]
  TGI: > 100 µM
[44]
  TGI: > 100 µM
[45]
  TGI: 97.3 µM
[46]
  TGI: > 100 µM
[47]
  TGI: > 100 µM
[48]
  TGI: > 100 µM
[49]
  TGI: > 100 µM
[50]
  TGI: > 100 µM
[51]
  TGI: > 100 µM
[52]
  TGI: > 100 µM
[53]
  TGI: > 100 µM
[54]
  TGI: > 100 µM

## COC(=O)C1OC(O[C@H]2CC[C@]3(C)[C@H]4CC=C5[C@@H]6CC(C)(C)CC[C@]6(C(=O)OC6OCC(O)C(O)C6OC6OC(C)C(OC7OCC(O)C(O)C7O)C(OC7OCC(O)(CO)C7O)C6O)[C@H](O)C[C@@]5(C)[C@]4(C)CC[C@H]3C2(C)C)C(O)C(O)C1O (stereo not given in full)
[1]
  TGI: 20 µM
[2]
  TGI: 3.3 µM
[3]
  TGI: 12.6 µM
[4]
  TGI: 10.1 µM
[5]
  TGI: 6.55 µM
[6]
  TGI: 17.5 µM
[55]
  TGI: > 100 µM
[7]
  TGI: 2.92 µM
[8]
  TGI: 20.9 µM
[9]
  TGI: 8.21 µM
[10]
  TGI: 3.79 µM
[11]
  TGI: 13.5 µM
[12]
  TGI: 22.2 µM
[13]
  TGI: 10.1 µM
[14]
  TGI: 3.94 µM
[15]
  TGI: 28.2 µM
[16]
  TGI: 7.16 µM
[17]
  TGI: 27.1 µM
[57]
  TGI: > 100 µM
[18]
  TGI: 9.49 µM
[19]
  TGI: 20.1 µM
[20]
  TGI: 7.41 µM
[59]
  TGI: 15.7 µM
[21]
  TGI: 3.43 µM
[22]
  TGI: 7.56 µM
[23]
  TGI: 3.7 µM
[24]
  TGI: 4.14 µM
[25]
  TGI: > 100 µM
[26]
  TGI: 15.5 µM
[27]
  TGI: 3.56 µM
[28]
  TGI: 34.3 µM
[29]
  TGI: 5.78 µM
[30]
  TGI: 18.2 µM
[31]
  TGI: 23.2 µM
[32]
  TGI: 17.4 µM
[33]
  TGI: 13.4 µM
[34]
  TGI: 24.4 µM
[35]
  TGI: 14.5 µM
[36]
  TGI: > 31.1 µM
[58]
  TGI: 24.6 µM
[37]
  TGI: 24 µM
[38]
  TGI: 15.9 µM
[39]
  TGI: > 100 µM
[40]
  TGI: 5.82 µM
[41]
  TGI: 4.69 µM
[42]
  TGI: 16.6 µM
[43]
  TGI: 24.9 µM
[44]
  TGI: 3.6 µM
[45]
  TGI: 19 µM
[46]
  TGI: 19.5 µM
[47]
  TGI: 6.37 µM
[48]
  TGI: 19.2 µM
[49]
  TGI: 15.3 µM
[50]
  TGI: 29.4 µM
[51]
  TGI: 19.3 µM
[52]
  TGI: 11.5 µM
[53]
  TGI: 6.08 µM
[54]
  TGI: 4.62 µM

From PubChem BioAssay (NCI)
